Assay results taken from PubChem BioAssay AID2060507 (Molecular Pharmacology Branch, DTP, NCI, 2025).
One block for each compound: values may come before it.

System: 519858-162-T-J1-PDC complex spheroid viability
Experiment: Anticancer human tumor 519858-162-T-J1-PDC patient-derived colon adenocarcinoma cell line growth inhibition [GQUAD]
Conditions: for IC50: curve of first compound; for viability, T/C: stronger effect = lower value
In short: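 Viability of tumor cells grown as complex spheroids with endothelial and stromal cells, exposed to drug combinations. Top concentration at or near clinical Cmax (else 10 microM), diluted in half-log increments.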

[1] = second compound 0.0316 µM, first compound 0.0316 µM
[2] = second compound 0.0316 µM, first compound 0.1 µM
[3] = second compound 0.0316 µM, first compound 0.316 µM
[4] = second compound 0.0316 µM, first compound 1 µM
[5] = second compound 0.0316 µM, first compound 3.16 µM
[6] = second compound 0.0316 µM, first compound 10 µM
[7] = second compound 0.1 µM, first compound 0.0316 µM
[8] = second compound 0.1 µM, first compound 0.1 µM
[9] = second compound 0.1 µM, first compound 0.316 µM
[10] = second compound 0.1 µM, first compound 1 µM
[11] = second compound 0.1 µM, first compound 3.16 µM
[12] = second compound 0.1 µM, first compound 10 µM
[13] = second compound 0.316 µM, first compound 0.0316 µM
[14] = second compound 0.316 µM, first compound 0.1 µM
[15] = second compound 0.316 µM, first compound 0.316 µM
[16] = second compound 0.316 µM, first compound 1 µM
[17] = second compound 0.316 µM, first compound 3.16 µM
[18] = second compound 0.316 µM, first compound 10 µM
[19] = second compound 1 µM, first compound 0.0316 µM
[20] = second compound 1 µM, first compound 0.1 µM
[21] = second compound 1 µM, first compound 0.316 µM
[22] = second compound 1 µM, first compound 1 µM
[23] = second compound 1 µM, first compound 3.16 µM
[24] = second compound 1 µM, first compound 10 µM
[25] = second compound 3.16 µM, first compound 0.0316 µM
[26] = second compound 3.16 µM, first compound 0.1 µM
[27] = second compound 3.16 µM, first compound 0.316 µM
[28] = second compound 3.16 µM, first compound 1 µM
[29] = second compound 3.16 µM, first compound 3.16 µM
[30] = second compound 3.16 µM, first compound 10 µM
[31] = second compound 10 µM, first compound 0.0316 µM
[32] = second compound 10 µM, first compound 0.1 µM
[33] = second compound 10 µM, first compound 0.316 µM
[34] = second compound 10 µM, first compound 1 µM
[35] = second compound 10 µM, first compound 3.16 µM
[36] = second compound 10 µM, first compound 10 µM
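For viability, T/C in this document: 100% = DMSO vehicle control viability.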

SMILES: CC(C)n1c(=O)n(C)c2cnc3cc(F)c(-c4ccc(OCCCN5CCCCC5)nc4)cc3c21 + Cc1[nH]c2ccc(F)cc2c1-c1nc2c3cccnc3c3ncccc3c2[nH]1
IC50 (second compound 0.0316 µM): > 10 µM
IC50 (second compound 0.1 µM): > 10 µM
IC50 (second compound 0.316 µM): > 10 µM
IC50 (second compound 1 µM): > 10 µM
IC50 (second compound 3.16 µM): > 10 µM
IC50 (second compound 10 µM): > 10 µM
viability, T/C [1]: 97.7%
viability, T/C [2]: 124%
viability, T/C [3]: 114%
viability, T/C [4]: 107%
viability, T/C [5]: 78.2%
viability, T/C [6]: 67.9%
viability, T/C [7]: 77.5%
viability, T/C [8]: 96.8%
viability, T/C [9]: 86.6%
viability, T/C [10]: 91.3%
viability, T/C [11]: 89.7%
viability, T/C [12]: 121%
viability, T/C [13]: 91.5%
viability, T/C [14]: 94.2%
viability, T/C [15]: 82%
viability, T/C [16]: 101%
viability, T/C [17]: 84.8%
viability, T/C [18]: 80.7%
viability, T/C [19]: 79.2%
viability, T/C [20]: 85.5%
viability, T/C [21]: 101%
viability, T/C [22]: 119%
viability, T/C [23]: 96.4%
viability, T/C [24]: 69.5%
viability, T/C [25]: 85.9%
viability, T/C [26]: 75.6%
viability, T/C [27]: 75.9%
viability, T/C [28]: 56.3%
viability, T/C [29]: 50.5%
viability, T/C [30]: 67.3%
viability, T/C [31]: 65.8%
viability, T/C [32]: 73.8%
viability, T/C [33]: 56.8%
viability, T/C [34]: 51.4%
viability, T/C [35]: 54.9%
viability, T/C [36]: 53%

IC50 (second compound 0.0316 µM): > 10 µM
IC50 (second compound 0.1 µM): > 10 µM
IC50 (second compound 0.316 µM): 10 µM
IC50 (second compound 1 µM): < 0.0316 µM
IC50 (second compound 3.16 µM): < 0.0316 µM
IC50 (second compound 10 µM): < 0.0316 µM
SMILES: CC(C)n1c(=O)n(C)c2cnc3cc(F)c(-c4ccc(OCCCN5CCCCC5)nc4)cc3c21 + Cc1cnc(CNC(=O)c2c(=O)c3ccc(N4CCCN(C)CC4)nc3n3c2sc2ccccc23)cn1
viability, T/C [1]: 55.4%
viability, T/C [2]: 61.4%
viability, T/C [3]: 73.1%
viability, T/C [4]: 53.7%
viability, T/C [5]: 70.2%
viability, T/C [6]: 66.4%
viability, T/C [7]: 66.8%
viability, T/C [8]: 47.8%
viability, T/C [9]: 64.3%
viability, T/C [10]: 60.6%
viability, T/C [11]: 56.3%
viability, T/C [12]: 54.6%
viability, T/C [13]: 66.7%
viability, T/C [14]: 68.9%
viability, T/C [15]: 52.3%
viability, T/C [16]: 48.5%
viability, T/C [17]: 49.8%
viability, T/C [18]: 61%
viability, T/C [19]: 44.2%
viability, T/C [20]: 45.9%
viability, T/C [21]: 44.2%
viability, T/C [22]: 46.7%
viability, T/C [23]: 44.1%
viability, T/C [24]: 43%
viability, T/C [25]: 35.6%
viability, T/C [26]: 25.4%
viability, T/C [27]: 54.8%
viability, T/C [28]: 44.1%
viability, T/C [29]: 60.2%
viability, T/C [30]: 51.5%
viability, T/C [31]: 37.1%
viability, T/C [32]: 43.6%
viability, T/C [33]: 46.7%
viability, T/C [34]: 52.5%
viability, T/C [35]: 59.7%
viability, T/C [36]: 68.8%

IC50 (second compound 0.0316 µM): 10 µM
IC50 (second compound 0.1 µM): > 10 µM
IC50 (second compound 0.316 µM): > 10 µM
IC50 (second compound 1 µM): > 10 µM
IC50 (second compound 3.16 µM): < 0.0316 µM
IC50 (second compound 10 µM): < 0.0316 µM
SMILES: CC1COCCN1c1cc(C2(S(C)(=N)=O)CC2)nc(-c2ccnc3[nH]ccc23)n1 (stereo not drawn) + Cc1cnc(CNC(=O)c2c(=O)c3ccc(N4CCCN(C)CC4)nc3n3c2sc2ccccc23)cn1
viability, T/C [1]: 90.9%
viability, T/C [2]: 84.6%
viability, T/C [3]: 89%
viability, T/C [4]: 98.5%
viability, T/C [5]: 48%
viability, T/C [6]: 67.8%
viability, T/C [7]: 114%
viability, T/C [8]: 91.3%
viability, T/C [9]: 84.3%
viability, T/C [10]: 59.8%
viability, T/C [11]: 55.2%
viability, T/C [12]: 78.5%
viability, T/C [13]: 79.3%
viability, T/C [14]: 92.8%
viability, T/C [15]: 67.8%
viability, T/C [16]: 82.6%
viability, T/C [17]: 79.3%
viability, T/C [18]: 66.6%
viability, T/C [19]: 48.6%
viability, T/C [20]: 57.5%
viability, T/C [21]: 74.4%
viability, T/C [22]: 44.8%
viability, T/C [23]: 48.2%
viability, T/C [24]: 57.7%
viability, T/C [25]: 35.9%
viability, T/C [26]: 39%
viability, T/C [27]: 45.5%
viability, T/C [28]: 56.4%
viability, T/C [29]: 51.4%
viability, T/C [30]: 51.1%
viability, T/C [31]: 46%
viability, T/C [32]: 35.6%
viability, T/C [33]: 62.2%
viability, T/C [34]: 41%
viability, T/C [35]: 58.8%
viability, T/C [36]: 37.4%

SMILES: C#Cc1c(F)ccc2cc(O)cc(-c3ncc4c(N5CC6CCC(C5)N6)nc(OCC56CCCN5CC(F)C6)nc4c3F)c12 (stereo not drawn) + CN(C)c1ccc(Nc2c3ccc(NC(=O)CCN4CCCC4)cc3nc3cc(NC(=O)CCN4CCCC4)ccc23)cc1
IC50 (second compound 0.0316 µM): > 10 µM
IC50 (second compound 0.1 µM): > 10 µM
IC50 (second compound 0.316 µM): > 10 µM
IC50 (second compound 1 µM): > 10 µM
IC50 (second compound 3.16 µM): > 10 µM
IC50 (second compound 10 µM): > 10 µM
viability, T/C [1]: 117%
viability, T/C [2]: 100%
viability, T/C [3]: 99.8%
viability, T/C [4]: 70.8%
viability, T/C [5]: 72%
viability, T/C [6]: 99.5%
viability, T/C [7]: 86.2%
viability, T/C [8]: 85.3%
viability, T/C [9]: 89.4%
viability, T/C [10]: 93.2%
viability, T/C [11]: 70.2%
viability, T/C [12]: 62.7%
viability, T/C [13]: 134%
viability, T/C [14]: 87.8%
viability, T/C [15]: 93.1%
viability, T/C [16]: 77.3%
viability, T/C [17]: 82.1%
viability, T/C [18]: 77.6%
viability, T/C [19]: 112%
viability, T/C [20]: 97.4%
viability, T/C [21]: 78.1%
viability, T/C [22]: 66.2%
viability, T/C [23]: 91.7%
viability, T/C [24]: 62%
viability, T/C [25]: 92%
viability, T/C [26]: 85.5%
viability, T/C [27]: 118%
viability, T/C [28]: 74.5%
viability, T/C [29]: 72.9%
viability, T/C [30]: 62.9%
viability, T/C [31]: 66.9%
viability, T/C [32]: 55%
viability, T/C [33]: 77.8%
viability, T/C [34]: 48.9%
viability, T/C [35]: 89.3%
viability, T/C [36]: 55.6%
